# Patent US10519162B2, “6,7-dihydropyrazolo[1,5-α]pyrazin-4(5H)-one compounds and their use as negative allosteric modulators of mGluR2 receptors” (Janssen Pharmaceutica NV, priority 2014, dated 2019)
# Columns and labels:
# human mGlu2 receptor = biological target: T1, human mGlu2 receptor (Homo sapiens, UniProt Q14416); assay: [35S]GTPγS binding assay (mGluR2 negative allosteric modulation, glutamate ~EC80 60 μM); format: biochemical; settings: for Emax: read-out: GTPγS-hmGluR2 anGT Emax; for IC50: membranes from CHO cells transfected with human mGlu2 receptor, glutamate ~EC80 (60 μM), pIC50 = −log IC50 (M), read-out: GTPγS-hmGluR2 anGT pIC50 (converted)
# T1 construct: expressed in transfected cells; host or cells: CHO cells
# Procedure: 1) [^35S]GTPγS Binding Assay
# [^35S]GTPγS Binding Assay
# Total reaction volume was 200 μl. […] Membrane-bound radioactivity was counted in a Topcount.
# rats = assay: Reversal of the effect of the mGluR2 PAM JNJ-42153605-induced inhibition of scopolamine-induced hyperlocomotion (SCOP JNJ-42153605); format: in vivo, rat; settings: PO (oral route), rats, reversal criterion total distance >1500 cm; for ED50: Rattus norvegicus
# Procedure: 2) Reversal of the Effect of the mGluR2 PAM JNJ-42153605-Induced Inhibition of Scopolamine-Induced Hyperlocomotion Apparatus
# Motor activity was measured in microprocessor-based motor activity arenas (closed gray PVC cylinders with a height of 39 cm and a diameter of 31 cm). Each arena was placed on an infrared LED (8×8 LEDs) lit box (white PVC squared box; 40×40 cm^2; height 12.5 cm. An infrared-sensitive tube camera and a white light source were mounted to the ceiling above the observation chamber to track the animal. The total distance traveled (cm) was recorded and analyzed using the Noldus Ethovision XT Video Tracking System (Version 7.0.418; Noldus, Wageningen, The Netherlands). The intensity of the light within the activity cages (measured in the centre at the level of the floor) ranged between 4 and 8 LUX.
# The rats were pretreated with test compound or vehicle at 60 min before the start of the activity recordings and placed into individual cages. The rats were challenged with JNJ-42153605 (3-(cyclopropylmethyl)-7-(4-phenylpiperidin-1-yl)-8-(trifluoromethyl)[1,2,4]triazolo[4,3-a]pyridine; WO2010/130424; Cid et al. J. Med. Chem. 2012, 55, 8770-8789) (20 mg/kg, i.v.) 30 min before the start of the activity recording combined with scopolamine (0.16 mg/kg, i.v.) just before the start of the activity measurements. Immediately after the injection of scopolamine, the rats were placed into the activity monitors and total distance travelled over the first 30 min was measured.
# Solvent-Pretreated Control Rats.
# Animals receiving the combination of JNJ-42153605 and scopolamine (n=433) almost always travelled a distance of less than 1500 cm (<1500 cm) (only 2.5% of the control rats travelled a distance of more than 1500 cm (>1500 cm)). On the other hand, animals challenged with scopolamine alone (n=215) always travelled a total distance of more than 1500 cm (>1500 cm) and almost always (in 95.8% of the rats) a distance of more than 4400 cm (>4400 cm). […] For reversal of the inhibitory effect of JNJ-42153605 on the scopolamine-induced hyperlocomotion, the following all-or-none criteria were adopted: (1) reversal: total distance >1500 cm.
# [1] = maximal % inhibition relative to the control glutamate response (EC80 glutamate)
# T1 sequence (Q14416 19-872): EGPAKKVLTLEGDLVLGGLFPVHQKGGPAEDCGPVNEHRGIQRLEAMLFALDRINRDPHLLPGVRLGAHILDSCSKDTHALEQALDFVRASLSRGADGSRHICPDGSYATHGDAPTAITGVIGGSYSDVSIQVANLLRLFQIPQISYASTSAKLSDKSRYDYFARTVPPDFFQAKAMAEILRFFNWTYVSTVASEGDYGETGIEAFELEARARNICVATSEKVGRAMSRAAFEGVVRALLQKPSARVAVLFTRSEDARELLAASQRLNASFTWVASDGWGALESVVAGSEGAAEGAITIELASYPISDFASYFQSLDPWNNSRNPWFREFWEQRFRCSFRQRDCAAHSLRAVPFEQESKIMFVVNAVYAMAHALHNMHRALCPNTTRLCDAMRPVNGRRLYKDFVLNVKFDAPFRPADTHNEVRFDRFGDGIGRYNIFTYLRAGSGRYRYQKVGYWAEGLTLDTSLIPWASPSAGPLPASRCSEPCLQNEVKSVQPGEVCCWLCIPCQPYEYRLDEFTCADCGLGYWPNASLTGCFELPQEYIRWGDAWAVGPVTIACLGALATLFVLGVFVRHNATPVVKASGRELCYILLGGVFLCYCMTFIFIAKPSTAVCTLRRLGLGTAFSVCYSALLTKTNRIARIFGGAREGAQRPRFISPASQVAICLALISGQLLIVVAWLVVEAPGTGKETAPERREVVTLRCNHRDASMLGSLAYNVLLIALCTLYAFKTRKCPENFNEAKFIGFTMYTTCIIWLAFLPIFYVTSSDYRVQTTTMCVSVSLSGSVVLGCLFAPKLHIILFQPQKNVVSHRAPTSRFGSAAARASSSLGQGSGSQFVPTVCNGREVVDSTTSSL
Emax (human mGlu2 receptor; [1]) [%],IC50 (human mGlu2 receptor) [M],melting point [°C],GTPγS-hmGluR2 anGT Emax (human mGlu2 receptor; [1]) [%],SMILES,ED50 (rats) [mg/kg],ED50 SCOP JNJ-42153605 (rats) [mg/kg]
107,2.34e-09,217.95,–,Cc1cc(N2C[C@H](C)n3ncc(NC(=O)c4ccccn4)c3C2=O)ccc1C(F)(F)F [Co. No. 110],> 0.63,–
105,1.02e-08,217.95,–,COc1cc(N2C[C@H](C)n3ncc(NC(=O)c4ccccn4)c3C2=O)ccc1C(F)(F)F [Co. No. 111],> 0.63,–
106,4.68e-09,128.97,–,Cc1cc(C(=O)Nc2cnn3c2C(=O)N(c2ccc(C(F)(F)F)c(C)c2)C[C@@H]3C)ccn1 [Co. No. 112],> 0.63,–
106,2.51e-09,225.49,–,Cc1cc(N2C[C@H](C)n3ncc(NC(=O)c4cnccn4)c3C2=O)ccc1C(F)(F)F [Co. No. 114],> 0.63,–
107,3.39e-09,151.53,–,Cc1cncc(C(=O)Nc2cnn3c2C(=O)N(c2ccc(C(F)(F)F)c(C)c2)C[C@@H]3C)c1 [Co. No. 115],> 0.63,–
104,1e-08,162.96,–,COc1cc(N2C[C@H](C)n3ncc(NC(=O)c4cncc(F)c4)c3C2=O)ccc1C(F)(F)F [Co. No. 116],> 0.63,–
104,8.51e-09,166.32,–,COc1cc(N2C[C@H](C)n3ncc(NC(=O)c4cncc(C)c4)c3C2=O)ccc1C(F)(F)F [Co. No. 117],> 0.63,–
108,4.27e-09,191.55,–,COc1cc(N2C[C@H](C)n3ncc(NC(=O)c4cnccn4)c3C2=O)ccc1C(F)(F)F [Co. No. 118],> 0.63,–
107,8.32e-09,200.3,–,Cc1ccncc1C(=O)Nc1cnn2c1C(=O)N(c1ccc(C(F)(F)F)c(C)c1)C[C@@H]2C [Co. No. 119],> 0.63,–
106,2.09e-08,160.45,–,COc1cncc(C(=O)Nc2cnn3c2C(=O)N(c2ccc(C(F)(F)F)c(Cl)c2)C[C@@H]3C)c1C [Co. No. 121],> 0.63,–
105,1.91e-07,181.87,–,COc1cncc(C(=O)Nc2cnn3c2C(=O)N(c2ccc(C(F)(F)F)cc2)C[C@@H]3C)c1C [Co. No. 122],> 0.63,–
107,2.63e-08,157.12,–,COc1cc(N2C[C@H](C)n3ncc(NC(=O)c4ccnc(C)c4)c3C2=O)ccc1C(F)(F)F [Co. No. 123],> 0.63,–
109,9.55e-09,217.01,–,C[C@H]1CN(c2ccc(C(F)(F)F)c(F)c2)C(=O)c2c(NC(=O)c3cncc(F)c3)cnn21 [Co. No. 124],> 0.63,–
–,4.17e-09,226.14,110,C[C@H]1CN(c2ccc(C(F)(F)F)c(F)c2)C(=O)c2c(NC(=O)c3cccnc3)cnn21 [Co. No. 126],–,>0.63
104,6.61e-09,236.55,–,C[C@H]1CN(c2ccc(C(F)(F)F)c(F)c2)C(=O)c2c(NC(=O)c3cnccn3)cnn21 [Co. No. 127],> 0.63,–
103,6.92e-09,163.67,–,Cc1cncc(C(=O)Nc2cnn3c2C(=O)N(c2ccc(C(F)(F)F)c(F)c2)C[C@@H]3C)c1 [Co. No. 128],> 0.63,–

# Further lines, the compound ahead of its results:
SMILES,Emax (human mGlu2 receptor; [1]) [%],IC50 (human mGlu2 receptor) [M],melting point [°C],GTPγS-hmGluR2 anGT Emax (human mGlu2 receptor; [1]) [%],ED50 (rats) [mg/kg],ED50 SCOP JNJ-42153605 (rats) [mg/kg]
COCc1cc(N2C[C@H](C)n3ncc(NC(=O)c4ccc(N)nc4)c3C2=O)ccc1C(F)(F)F [Co. No. 22],111,4.79e-09,213.77,–,> 2.5,–
C[C@H]1CN(c2ccc(C(F)(F)F)c(C#N)c2)C(=O)c2c(NC(=O)c3ccc(N)nc3)cnn21 [Co. No. 26],106,6.46e-09,216.96,–,> 2.5,–
COc1cccc(C(=O)Nc2cnn3c2C(=O)N(c2ccc(C(F)(F)F)cc2)C[C@@H]3C)c1 [Co. No. 27],106,6.61e-09,136.91,–,> 2.5,–
"Cc1cc(C(=O)Nc2cnn3c2C(=O)N(c2ccc(C(F)(F)F)cc2)C[C@@H]3C)ccn1 [Co. No. 29, 2-Methyl-N-[(7S)-7-methyl-4-oxo-5-[4-(trifluoromethyl)phenyl]-6,7-dihydropyrazolo[1,5-a]pyrazin-3-yl]pyridine-4-carboxamide]",100,6.92e-09,145.1,–,> 2.5,–
COCc1cccc(C(=O)Nc2cnn3c2C(=O)N(c2ccc(C(F)(F)F)cc2)C[C@@H]3C)c1 [Co. No. 30],113,7.08e-09,160.03,–,> 2.5,–
COc1cncc(C(=O)Nc2cnn3c2C(=O)N(c2ccc(C(F)(F)F)cc2)C[C@@H]3C)c1 [Co. No. 32],112,7.41e-09,174.59,–,1.26,–
Cc1cccc(C(=O)Nc2cnn3c2C(=O)N(c2ccc(C(F)(F)F)cc2)C[C@@H]3C)n1 [Co. No. 34],116,8.32e-09,214.97,–,> 2.5,–
C[C@H]1CN(c2ccc(C(F)(F)F)cc2)C(=O)c2c(NC(=O)c3cnccn3)cnn21 [Co. No. 35],112,8.13e-09,219.91,–,1.26,–
COc1cc(N2C[C@H](C)n3ncc(NC(=O)c4ccc(N)nc4)c3C2=O)ccc1C(F)(F)F [Co. No. 38],109,9.12e-09,179.66,–,> 2.5,–
COc1cnc(C(=O)Nc2cnn3c2C(=O)N(c2ccc(C(F)(F)F)cc2)C[C@@H]3C)cn1 [Co. No. 39],111,9.33e-09,191.33,–,> 2.5,–
C[C@H]1CN(c2ccc(C(F)(F)F)cc2)C(=O)c2c(NC(=O)c3cnc(N)cn3)cnn21 [Co. No. 45],106,1.2e-08,287.45,–,> 2.5,–
Cc1cncc(C(=O)Nc2cnn3c2C(=O)N(c2ccc(C(F)(F)F)cc2)C[C@@H]3C)c1 [Co. No. 99],114,3.98e-09,165.21,–,> 2.5,–
C[C@H]1CN(c2ccc(Cl)c(Cl)c2)C(=O)c2c(NC(=O)c3ccccn3)cnn21 [Co. No. 105],109,2.63e-09,155.04,–,> 0.63,–
Cc1cc(N2C[C@H](C)n3ncc(NC(=O)c4cncc(F)c4)c3C2=O)ccc1C(F)(F)F [Co. No. 107],108,2.69e-09,155.04,–,> 0.63,–
Cc1cncc(C(=O)Nc2cnn3c2C(=O)N(c2ccc(Cl)c(Cl)c2)C[C@@H]3C)c1 [Co. No. 108],109,9.77e-10,185.71,–,> 0.63,–
C[C@H]1CN(c2ccc(Cl)c(Cl)c2)C(=O)c2c(NC(=O)c3cncc(F)c3)cnn21 [Co. No. 109],105,1.38e-09,128.16,–,> 0.63,–
